Source: patent publication US20220218679A1, “NOVEL COMPOUNDS AND PHARMACEUTICAL COMPOSITIONS THEREOF FOR THE TREATMENT OF INFLAMMATORY DISORDERS” (Galapagos NV, priority 2019, published 2022)

Assays:
[1] = test system: CL097 triggered IFNα release in human whole blood; assay: Ex vivo human IFNα release inhibition (human whole blood assay); assay type: cell-based; details: Homo sapiens, CL097 2 μg/mL, 3 h 30 min at 37° C.
Excerpt: 4.10.1. Ex Vivo Human IFNα and TNFα Release Inhibition (Human Whole Blood Assay)
The aim of the assay is to evaluate the activity of compounds of the invention on the activated TLR/IRAK-4 pathway in an ex vivo human whole blood setting. Toll-like receptors (TLRs) are pattern recognition receptors that recognize a wide variety of microbial molecules, called pathogen-associated molecular patterns (PAMPs). Human TLR7 and TLR8 recognize imidazoquinoline compounds (e.g., CL097—CAS n #1026249-18-2) and single stranded RNAs as their natural ligands. Activation of TLRs leads to the production of several cytokines (e.g., IFNα, TNFα, IL-8, IL-6) by the TLR agonist-treated cells, whereas IRAK4 leads to the production of IFNα. Cytokine release is used as readout in this assay and represents a measure for the level of inhibition of the TLR/IRAK-4 pathway by the tested compound. It should be noted that in the context of the complete organism, other sources for these cytokines exist that are not dependent on the TLR/IRAK-4 pathway, such as e.g., macrophages (upon activation of the Fcγ receptor (Yan et al., 2012)) or T cells (upon activation of the T cell receptor (Brehm et al., 2005)).
4.10.1.1. Experimental Design
Blood was collected from healthy volunteers into lithium heparin tubes by venipuncture, then gently inverted several times to prevent clotting and incubated for at least 15 min at 37° C. on a rocking mixer shaker. Then, 100 μL of blood was dispensed into polypropylene 96-well microplate and pre-incubated in duplicate with 0.3% DMSO or test compound at different concentrations (from 30 to 0.01 μM, 3-fold dilutions to get 0.3% DMSO at the final) for 15 min at 37° C. After this pre-incubation, blood was triggered with CL097 (2 μg/mL from 1 mg/mL solution in water; InvivoGen, tlrl-c97) for 3 h 30 min at 37° C. Microtubes were centrifuged at 5000×g for 10 min at 4° C. and approximately 40 μL of plasma were collected into a polystyrene 96-well plate. Plasma could be analyzed freshly, within 30 min after triggering, or frozen at −80° C. Finally, the quantification of TNFα and IFNα were performed in the plasma using AlphaLISA Kit for TNFα and IFNα according to the manufacturer's instructions and read on the Ensight (PerkinElmer).
A standard curve was created by plotting on log-log the mean […] on the y-axis against the concentration on the x-axis and a 4-parameters logistic regression (4PL) was made through the points. For each blood sample, the IFNα concentrations of the samples were determined from the fit. Data were then expressed as a percentage of inhibition (PIN) for each replicate using the formula:
With mean IFNα with CL097=mean IFNα concentration of replicate samples triggered with CL097; IFNαsample1=IFNα concentration of sample 1; mean IFNα with vehicle=mean IFNα concentration of replicate samples treated with vehicle.
Curve fitting for pIC50 determination were generated using mean PIN±sem. Graphs and pIC50 calculations were derived using Prism 5.03 software (GraphPad).

Mouse Hepatocyte = assay: Metabolic stability in hepatocytes (mouse); assay type: in vitro ADME; details: 1 μM test compound, cryopreserved mouse hepatocytes
Experimental: 4.6. Metabolic Stability in Hepatocytes
The aim of this assay is to determine the metabolic stability of the compound in hepatocytes (cryopreserved) of different species. Low hepatocyte stability may result in the formation of unwanted metabolites, high clearance, and therefore is not desirable.
The decrease in parent was assessed by measuring the percentage remaining by LC-MS/MS analysis.
A 10 mM stock solution of test compound in DMSO was first diluted in DMSO to 3 mM, and then in modified Krebs-Henseleit buffer (Sigma, K3753) to 5 μM. This compound dilution was added to a suspension of pooled cryopreserved hepatocytes (BioreclamationIVT) at 37° C. under gentle shaking.
Final reaction conditions were: 1 μM of test compound, 0.03% DMSO, 0.5 million viable hepatocytes/mL, and 75 μL incubation volume.
Testosterone (1 μM) and 7-hydroxycoumarin (1 μM) were used, respectively as phase I and phase II metabolic reaction controls.
After 0, 10, 20, 45, 90, 120 and 180 min of incubation, the reaction was terminated with 225 μL of MeCN:MeOH (2:1) containing 100 ng/mL of diclofenac as analytical internal standard. Samples were mixed, centrifuged and the supernatant analyzed by LC-MS/MS.
The instrument responses (ratios of test compound and internal standard peak areas) were referenced to the zero time point samples (considered as 100%) in order to determine the percentage of compound remaining.
Plots of percentage compound remaining were used to determine the intrinsic clearance in the hepatocyte incubations using the following equations:
Scaled Clint [L/h/kg]=Clint[μL/min/10^6 cells]*#(10^6) cells/g liver*60*( 1/10^6) Scaled Clint unbound [L/h/kg]=Clint [L/h/kg]/Fu,inc where: fu,inc equals hepatocyte binding, derived from microsomal binding (fu,mic) by following equation: […]

Row | IC50 [1] [nM] | Mouse Hepatocyte stability (Perc. remaining at 90 min) (Mouse Hepatocyte) [Perc.] | Structure (SMILES)
1 | 1000 to 5000 | 80.9 | CC(C)(O)CCc1cc2cc(NC(=O)c3cccc(C(F)F)n3)c(C(N)=O)cn2n1 [Compound 20, 5-[[6-(difluoromethyl)pyridine-2-carbonyl]amino]-2-(3-hydroxy-3-methyl-butyl)pyrazolo[1,5-a]pyridine-6-carboxamide]
2 | 0.1 to 500 | 99.45 | COc1cn2nc(CCC(C)(C)O)cc2cc1NC(=O)c1cccn(C2CC2)c1=O [Compound 1, 1-cyclopropyl-N-[2-(3-hydroxy-3-methylbutyl)-6-methoxypyrazolo[1,5-a]pyridin-5-yl]-2-oxopyridine-3-carboxamide]
